Test results taken from US20150023884A1, “Antiperspirant Spray Devices and Compositions” (The Procter & Gamble Company, priority 2013, published 2015).

Text: (§1) Solubility may be determined by measuring the amount of light transmittance (a light transmittance value) through a simple mixture of the non-volatile silicone fluid and liquid activation enhancer at the same weight/weight concentrations as in a final antiperspirant composition.
as §1, with “Solubility of a liquid activation enhancer in a non-volatile silicone” for “Solubility”, “(light” for “(a light”
The Spectronic Genesys 10 Vis utilizes a tungsten-halogen light source and has a spectral bandwidth of 5 nm, a wavelength range of 325 to 1100 nm, accuracy of ±1 nm and a repeatability of ±0.5 nm. Readouts include absorbance, transmittance and concentration. The spectrophotometer is set to 640 nm wavelength and the percent transmittance mode/readout. Polystyrene spectrometer cuvettes having a 1 cm optical light path and transmittance between ˜340 nm and ˜900 nm are used. One suitable example of a spectrometer cuvette is available from VWR International LLC under Catalog #97000-584 having a 2.5 to 4.5 ml capacity. […] The sample cuvettes are shaken well just prior to taking a light transmittance reading.

Row | light transmittance value | Compound
1 | about 100% | CCCCCCCCCCCCCCCCCC(=O)OCCCC [butyl stearate]
2 | about 100% | CCCCCCCCCCCCCC(C)C [isohexadecane]
